Measurements published in publication PMC10053770, “Assessment of the Pharmacokinetics, Disposition, and Duration of Action of the Tumour-Targeting Peptide CEND-1” (International Journal of Molecular Sciences, 2023).
Bridges are numbered along the chain shown (N, C = ends). Where no end group is shown, it is not given here.

Test system: HCCs of TGFα/c-myc mice
Assay: Tumour penetration assessment with Evans blue
Type: in vivo, mouse
Conditions: 4 μmol/kg peptide i.v.; Evans blue 33 mg/kg i.v. 24 h later; photometric quantification; n = 11 tumours from four animals
Experimental: Homozygous metallothionein/TGFα and albumin/c-myc single transgenic mice in CD13B6CBA background were crossed to generate the male TGFα/c-myc bitransgenic mice, as previously described. Hepatocarcinogenesis was accelerated by giving the mice ZnCl2 (via the drinking water) to induce the expression of TGFα. The animals were inspected every 2 to 3 days. To detect and monitor the endogenously formed HCCs in the TGFα/c-myc mice, gadoxetic acid (Gd-EOB-DTPA)-enhanced MRI was performed on a 3T MRI scanner (Siemens Magnetom Trio, Siemens Medical Solutions) as described recently. Mice with HCC as identified by Gd-EOB-DTPA-enhanced MRI were used in the subsequent experiments.
TGFα/c-myc mice with confirmed liver tumours according to Gd-EOB-DTPA […]-enhanced MRI or nude mice with HepG2 tumours received iRGD/CEND-1 or RGD control peptide (4 μmol/kg each), or PBS by tail vein injection. […] Another 30 min later, the mice were terminally perfused with Ringer solution by cannulation of the left heart ventricle. Organs were inspected macroscopically following laparotomy, and the liver, tumour and other organs were excised. Evans blue was extracted from tissues in N,N-dimethylformamide for 24 h at 37 °C and quantified spectrophotometrically (Beckman Coulter DU 800, Beckman Coulter, Brea, CA, USA) at 600 nm.

CRGDDGPKC (disulfide 1-9 (inferred)) [RGD control peptide, RGD control peptide (…)]
increase in Evans blue in the tumour tissue: no effect
